{"source": "patent US20110060036A1", "about": "“Branched Multifunctional Nanoparticle Conjugates And Their Use” (EMORY UNIVERSITY, priority 2008, published 2011)", "key": {"MDA-MB-231 tumor": {"system": "MDA-MB-231 tumor", "test": "Therapeutic efficacy test in MDA-MB-231 orthotopic tumor model", "format": "in vivo, athymic nude mice", "conditions": "for therapeutic outcome in small tumors: tumors about 30 mm^3, i.v. weekly; for therapeutic outcome in small tumors / antitumor effect in large tumors: TX equivalent 30 mg/Kg; for antitumor effect in large tumors: tumors about 120 mm^3, i.v., 4 weekly injections", "description": "The MDA-MB-231 tumor model was used for testing the in-vivo therapeutic efficacy of these polymer-drug conjugates. MDA-MB-231 tumors were developed in the mammary fat pad of athymic nude mice as discussed above. When the average sizes of the tumor reached 100-120 or ˜30 mm^3, mice were randomly sorted into 4 groups (6 mice each group). A paclitaxel equivalent of 30 mg/kg of free drug and polymer drug conjugates were administered i.v. and the injections were performed weekly. Tumor sizes were measured in two dimensions with calipers and volume was calculated using the following formula: Tumor volume=(length×width^2)/2. The end-point size of this tumor model was set at 1,500 mm^3, 20% weight loss or severe ulceration (more than 20% of tumor areas).\nFollowing the in-vivo blood circulation and tumor targeting tests, the anti-tumor activity of these nanoparticles was evaluated in comparison with free TX using the MDA-MB-231 orthotopic tumor model with two serials trials of tumor sizes of about 120 and 30 mm^3."}, "[1]": {"conditions": "room temperature (25 degrees C.); cited from earlier work"}, "tumor cell cultures": {"system": "tumor cell cultures", "conditions": "cited from earlier work"}}, "data": [{"compound": "CC(=O)O[C@H]1C(=O)[C@@]2(C)[C@H]([C@H](OC(=O)c3ccccc3)[C@]3(O)C[C@H](OC(=O)[C@H](O)[C@@H](NC(=O)c4ccccc4)c4ccccc4)C(C)=C1C3(C)C)[C@]1(OC(C)=O)CO[C@@H]1C[C@@H]2O", "note": "[TX, paclitaxel]", "values": [{"measurement": "histological analysis of tumor sections: Ki67 expression level", "setting": "MDA-MB-231 tumor; large tumors, TX equivalent 30 mg/Kg weekly", "result": "little difference compared to the control"}, {"measurement": "therapeutic outcome in small tumors", "setting": "MDA-MB-231 tumor", "result": "delayed response to the treatment"}, {"measurement": "antitumor effect in large tumors", "setting": "MDA-MB-231 tumor", "result": "little effect on tumor inhibition"}]}, {"compound": "CC(C)CCC[C@@H](C)[C@H]1CC[C@H]2[C@@H]3CC=C4C[C@@H](O)CC[C@]4(C)[C@H]3CC[C@]12C", "note": "[cholesterol]", "values": [{"measurement": "solubility in water", "setting": "[1]", "result": 10, "unit": "nanograms/ml"}]}, {"compound": "COc1cccc2c1C(=O)c1c(O)c3c(c(O)c1C2=O)C[C@@](O)(C(=O)CO)C[C@@H]3O[C@H]1C[C@H](N)[C@H](O)[C@H](C)O1", "note": "[doxorubicin]", "values": [{"measurement": "solubility in water", "setting": "[1]", "result": 1, "unit": "milligram/ml"}]}, {"compound": "PG-2′-O— succinyl-paclitaxel [GT]", "values": [{"measurement": "therapeutic outcome in small tumors", "setting": "MDA-MB-231 tumor", "result": "delayed response to the treatment"}, {"measurement": "antitumor effect in large tumors", "setting": "MDA-MB-231 tumor", "result": "significant antitumor effects"}]}, {"compound": "calicheamicin", "values": [{"measurement": "IC50 for inhibition of growth of tumor cell cultures", "setting": "tumor cell cultures", "result": "low picomolar range"}]}, {"compound": "dynemicin", "values": [{"measurement": "IC50 for inhibition of growth of tumor cell cultures", "setting": "tumor cell cultures", "result": "low picomolar range"}]}, {"compound": "esperamicin", "values": [{"measurement": "IC50 for inhibition of growth of tumor cell cultures", "setting": "tumor cell cultures", "result": "low picomolar range"}]}]}
